Measured values reported in US20250241923A1, “A DUAL SELECTIVE PI3K DELTA AND GAMMA INHIBITORS AND/OR A SALT-INDUCIBLE KINASE 3 INHIBITOR FOR TREATING SOLID TUMORS” (Incozen Therapeutics Pvt. Ltd, priority 2022, published 2025).
Entries after “also recorded” stand apart in the source; their conditions may differ.

Legend:
[1] = In vitro plasma stability, dog plasma; type: in vitro ADME; details: LC-MS/MS
Experimental: (§1) In vitro plasma stability studies were performed using rat, dog, monkey and human plasma. The concentration of tenalisib was measured by LC-MS/MS.

PI3Kβ [2] = molecular target: PI3Kβ (Homo sapiens, UniProt P42338); assay: PI3K isoform enzyme assay (HTRF), PI3Kβ; type: biochemical; details: 100 μM ATP
PI3Kβ (Homo sapiens, UniProt P42338), sequence (P42338 whole entry, canonical isoform): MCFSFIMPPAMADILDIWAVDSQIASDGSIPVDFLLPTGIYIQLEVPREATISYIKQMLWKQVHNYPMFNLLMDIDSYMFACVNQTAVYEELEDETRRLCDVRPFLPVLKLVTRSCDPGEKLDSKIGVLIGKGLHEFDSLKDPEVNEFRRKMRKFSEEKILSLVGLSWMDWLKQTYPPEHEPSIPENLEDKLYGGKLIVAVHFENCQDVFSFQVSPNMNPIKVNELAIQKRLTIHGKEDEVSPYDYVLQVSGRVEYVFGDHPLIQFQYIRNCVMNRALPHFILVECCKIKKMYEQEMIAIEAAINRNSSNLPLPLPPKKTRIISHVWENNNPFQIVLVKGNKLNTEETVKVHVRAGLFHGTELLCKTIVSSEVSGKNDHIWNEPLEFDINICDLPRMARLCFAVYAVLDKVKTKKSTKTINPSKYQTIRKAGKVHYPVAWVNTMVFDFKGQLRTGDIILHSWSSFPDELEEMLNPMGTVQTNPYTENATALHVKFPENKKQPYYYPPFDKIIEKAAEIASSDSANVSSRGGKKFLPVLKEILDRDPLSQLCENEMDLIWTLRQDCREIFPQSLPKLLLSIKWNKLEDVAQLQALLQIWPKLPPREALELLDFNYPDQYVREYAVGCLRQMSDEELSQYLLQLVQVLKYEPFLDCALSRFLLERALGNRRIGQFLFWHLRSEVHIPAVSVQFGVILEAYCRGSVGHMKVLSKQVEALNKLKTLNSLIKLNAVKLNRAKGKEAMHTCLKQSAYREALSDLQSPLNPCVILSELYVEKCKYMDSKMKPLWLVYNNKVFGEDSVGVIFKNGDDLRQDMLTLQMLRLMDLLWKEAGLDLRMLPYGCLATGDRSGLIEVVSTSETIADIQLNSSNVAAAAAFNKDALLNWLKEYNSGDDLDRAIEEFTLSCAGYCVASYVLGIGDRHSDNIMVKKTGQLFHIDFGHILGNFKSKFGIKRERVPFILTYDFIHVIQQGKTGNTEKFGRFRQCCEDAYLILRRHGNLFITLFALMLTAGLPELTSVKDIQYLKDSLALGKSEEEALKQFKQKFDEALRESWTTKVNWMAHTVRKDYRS
PI3Kβ (Homo sapiens, UniProt P42338), sequence (P27986 whole entry partner, canonical isoform): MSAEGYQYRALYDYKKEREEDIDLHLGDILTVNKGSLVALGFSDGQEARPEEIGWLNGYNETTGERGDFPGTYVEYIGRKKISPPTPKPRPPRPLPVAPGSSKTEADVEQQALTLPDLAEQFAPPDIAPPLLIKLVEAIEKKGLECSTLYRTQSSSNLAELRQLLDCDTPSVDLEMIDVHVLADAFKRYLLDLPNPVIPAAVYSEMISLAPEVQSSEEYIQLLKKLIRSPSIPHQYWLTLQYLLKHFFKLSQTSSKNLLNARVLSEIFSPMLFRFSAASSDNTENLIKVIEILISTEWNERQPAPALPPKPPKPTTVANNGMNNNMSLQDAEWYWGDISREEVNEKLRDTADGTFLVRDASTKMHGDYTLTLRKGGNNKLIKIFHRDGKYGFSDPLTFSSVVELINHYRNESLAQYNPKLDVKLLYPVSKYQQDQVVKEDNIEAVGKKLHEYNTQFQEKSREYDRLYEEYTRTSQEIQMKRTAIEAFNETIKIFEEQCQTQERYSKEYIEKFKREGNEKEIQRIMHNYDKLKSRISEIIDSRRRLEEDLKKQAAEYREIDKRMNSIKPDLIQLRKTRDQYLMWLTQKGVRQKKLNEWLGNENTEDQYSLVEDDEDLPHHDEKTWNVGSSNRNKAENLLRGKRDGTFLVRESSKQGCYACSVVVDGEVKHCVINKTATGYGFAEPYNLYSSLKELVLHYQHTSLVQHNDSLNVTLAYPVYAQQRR

plasma proteins [3] = assay: In vitro protein binding, rat plasma; type: in vitro ADME
Experimental: (§2) In vitro protein binding studies were performed using rat, dog, monkey and human plasma. Binding of tenalisib to plasma proteins was >96% across all species.

PI3Kβ [4] = molecular target: T1, PI3Kβ (Mus musculus, UniProt Q8BTI9); assay: PI3K isoform cell-based assay: PI3K β-mediated phosphorylation of AKT in 3T3 fibroblasts; details: pAKT by PDGF or lysophosphatidic acid in 3T3 fibroblasts
T1 construct: endogenous in cells; host or cells: 3T3 fibroblasts (pAKT)

[5] = Metabolic stability in liver microsomes, mouse; type: in vitro ADME
From the text: (§3) In in vitro studies using liver microsomes, the metabolic stability of tenalisib followed the rank order of rat>human>dog>monkey>mouse (Table 3).

PI3Kδ [6] = molecular target: T2, PI3Kδ (Homo sapiens, UniProt O00329); assay: PI3K isoform enzyme assay (HTRF), PI3Kδ; type: biochemical
T2 sequence (O00329 whole entry, canonical isoform): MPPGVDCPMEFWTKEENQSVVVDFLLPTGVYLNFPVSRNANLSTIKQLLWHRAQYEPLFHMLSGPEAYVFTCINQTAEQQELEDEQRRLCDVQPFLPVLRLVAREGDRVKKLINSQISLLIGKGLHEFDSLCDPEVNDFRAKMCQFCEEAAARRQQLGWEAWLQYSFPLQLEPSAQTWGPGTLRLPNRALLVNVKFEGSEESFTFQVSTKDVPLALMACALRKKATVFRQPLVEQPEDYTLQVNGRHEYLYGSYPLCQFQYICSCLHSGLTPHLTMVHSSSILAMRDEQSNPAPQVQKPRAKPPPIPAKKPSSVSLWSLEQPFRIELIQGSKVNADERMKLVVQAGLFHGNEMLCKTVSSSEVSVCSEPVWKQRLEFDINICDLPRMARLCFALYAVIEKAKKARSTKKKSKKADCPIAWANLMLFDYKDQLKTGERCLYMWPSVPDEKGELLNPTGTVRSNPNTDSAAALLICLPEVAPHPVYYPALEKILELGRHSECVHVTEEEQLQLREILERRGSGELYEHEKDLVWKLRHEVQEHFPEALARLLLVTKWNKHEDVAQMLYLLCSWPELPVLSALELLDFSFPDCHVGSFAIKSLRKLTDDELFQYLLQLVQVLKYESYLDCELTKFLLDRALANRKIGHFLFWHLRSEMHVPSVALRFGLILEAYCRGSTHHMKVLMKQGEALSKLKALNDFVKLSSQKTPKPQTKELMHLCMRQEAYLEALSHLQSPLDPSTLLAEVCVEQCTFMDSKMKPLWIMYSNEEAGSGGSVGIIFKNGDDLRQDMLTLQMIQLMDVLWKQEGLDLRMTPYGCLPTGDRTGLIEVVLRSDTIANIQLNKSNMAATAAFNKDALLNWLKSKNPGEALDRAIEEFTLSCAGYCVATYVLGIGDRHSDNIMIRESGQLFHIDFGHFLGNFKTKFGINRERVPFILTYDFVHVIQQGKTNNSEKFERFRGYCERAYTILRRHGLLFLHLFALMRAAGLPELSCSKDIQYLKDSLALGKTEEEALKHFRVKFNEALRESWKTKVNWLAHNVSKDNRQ
T2 sequence (P27986 whole entry partner, canonical isoform): as the sequence (P27986 whole entry partner, canonical isoform) above

[7] = Metabolic stability in liver microsomes, monkey; type: in vitro ADME
From the text: as §3

PI3Kδ [8] = molecular target: T2, PI3Kδ; assay: anti-FcεR1 induced CD63 expression in human whole blood; type: cell-based; design: endogenous in cells; host or cells: human whole blood (anti-FcεR1 induced CD63); details: whole blood from healthy human subjects; flow cytometry; read-out: EC50 of anti-FcεR1 (PI3Kδ) mediated CD63 expression
PI3Kγ [9] = molecular target: T3, PI3Kγ (Homo sapiens, UniProt P48736); assay: PI3K isoform enzyme assay (HTRF), PI3Kγ; type: biochemical; details: 100 μM ATP
T3 sequence (P48736 whole entry, canonical isoform): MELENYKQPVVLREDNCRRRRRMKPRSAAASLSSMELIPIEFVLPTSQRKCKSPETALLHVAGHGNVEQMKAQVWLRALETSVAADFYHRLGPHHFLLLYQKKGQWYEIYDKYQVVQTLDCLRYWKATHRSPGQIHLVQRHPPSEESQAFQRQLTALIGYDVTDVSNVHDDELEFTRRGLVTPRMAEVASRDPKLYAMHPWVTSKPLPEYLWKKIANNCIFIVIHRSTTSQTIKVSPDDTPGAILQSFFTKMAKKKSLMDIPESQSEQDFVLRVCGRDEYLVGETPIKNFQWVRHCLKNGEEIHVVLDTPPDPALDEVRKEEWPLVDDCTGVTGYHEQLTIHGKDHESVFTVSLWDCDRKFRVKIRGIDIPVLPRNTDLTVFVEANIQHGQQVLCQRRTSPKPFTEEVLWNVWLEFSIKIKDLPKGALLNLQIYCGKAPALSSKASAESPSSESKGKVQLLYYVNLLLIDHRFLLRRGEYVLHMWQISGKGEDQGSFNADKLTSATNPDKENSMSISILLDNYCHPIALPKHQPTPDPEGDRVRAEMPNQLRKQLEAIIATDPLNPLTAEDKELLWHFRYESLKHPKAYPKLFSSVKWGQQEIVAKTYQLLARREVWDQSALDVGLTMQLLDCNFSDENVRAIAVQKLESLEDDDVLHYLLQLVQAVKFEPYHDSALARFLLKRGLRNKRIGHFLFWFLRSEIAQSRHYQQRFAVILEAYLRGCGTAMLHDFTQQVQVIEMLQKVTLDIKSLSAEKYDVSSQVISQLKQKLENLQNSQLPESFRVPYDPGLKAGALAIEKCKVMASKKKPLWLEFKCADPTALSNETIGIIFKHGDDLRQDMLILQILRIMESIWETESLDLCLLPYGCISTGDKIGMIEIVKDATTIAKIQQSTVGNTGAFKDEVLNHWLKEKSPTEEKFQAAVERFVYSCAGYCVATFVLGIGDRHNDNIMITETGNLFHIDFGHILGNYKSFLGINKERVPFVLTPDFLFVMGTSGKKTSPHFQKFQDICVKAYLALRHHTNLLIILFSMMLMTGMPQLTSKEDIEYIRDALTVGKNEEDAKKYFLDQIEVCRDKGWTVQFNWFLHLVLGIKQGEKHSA

plasma proteins [10] = assay: In vitro protein binding, human plasma; type: in vitro ADME
Experimental: as §2

[11] = In vitro plasma stability, rat plasma; type: in vitro ADME; details: LC-MS/MS
Experimental: as §1

[12] = test system: locally advanced or metastatic breast cancer; assay: Phase II randomized open label study in breast cancer patients; type: in vivo, human
Experimental: This is a Phase II, randomized, open label study, designed to evaluate the preliminary efficacy and safety of tenalisib (Compound A) at two dose levels (800 mg BID and 1200 mg BID) in 40 patients with locally advanced or metastatic breast cancer. 20 patients will be enrolled in each of Group 1 (tenalisib 800 mg BID) and Group 2 (tenalisib 1200 mg BID). Both groups will be run in parallel.
• 1. Provision of full informed consent prior to any study-specific procedures. • 2. Patients must be ≥18 years of age, at the time of signing informed consent. • 3. Female patients who have histologically and/or cytologically confirmed locally advanced or metastatic breast cancer that has progressed following at least one line of therapy. • 4. Patients with at least one measurable lesion per RECIST version 1.1 at baseline that can be accurately assessed by CT scan or MRI and is suitable for repeated assessment at follow up-visits. • 5. ECOG performance status 0 to 2. • 6. Life expectancy of at least 3 months. • 7. […] Female patient of childbearing potential should be willing to use a medically acceptable method of contraception as defined in Appendix B while participating in the study and for 30 days after the last dose of study drug AND must have a negative serum pregnancy test within 3 days prior to Cycle 1 Day 1 (C1D1). • 9. Ability to swallow and retain oral medication. • 10. Willingness and capability to comply with the study requirements.

PI3Kγ [13] = molecular target: T3, PI3Kγ; assay: fMLP induced CD63 expression in human whole blood; type: cell-based; design: endogenous in cells; host or cells: human whole blood (fMLP induced CD63); details: whole blood from healthy human subjects; flow cytometry; read-out: EC50 of fMLP (PI3Kγ) mediated CD63 expression
[14] = In vitro plasma stability, monkey plasma; type: in vitro ADME; details: LC-MS/MS
Experimental: as §1

[15] = Pharmacokinetics, oral bioavailability in rats; type: in vivo; details: rat, plasma
Experimental: (§4) Pharmacokinetic studies following single-dose and repeat dose administration were performed in mice, rats, dogs, humans and monkeys. Tenalisib plasma concentrations were determined by a validated LC-MS/MS method. The pharmacokinetic profile of tenalisib was evaluated following both oral and intravenous administration. […] In an in vitro study using liver microsomes, the metabolic stability followed a rank order of rat>human>dog>monkey>mouse.

[16] = Pharmacokinetics, oral bioavailability in dogs; type: in vivo; details: dog, plasma
Experimental: as §4

[17] = test system: MC38 syngeneic murine colon carcinoma; assay: MC38 syngeneic murine colon carcinoma C57BL/6 model; type: in vivo; details: day 22; daily tenalisib; C57BL/6 female mice
Experimental: Daily tenalisib alone and in combination with anti-PD-1 (clone: RMP1-14) was evaluated for tumor growth inhibition (TGI) in the MC38 syngeneic murine colon carcinoma model in immunocompetent C57BL/6 female mice.

[18] = Metabolic stability in liver microsomes, human; type: in vitro ADME
From the text: as §3

[19] = Metabolic stability in liver microsomes, rank order across species; type: in vitro ADME, rat, human, dog, monkey, mouse
Experimental: as §4, §3

plasma proteins [20] = assay: In vitro protein binding, monkey plasma; type: in vitro ADME
Experimental: as §2

[21] = Pharmacokinetic studies, absorption and clearance across the tested species; type: in vivo, mice, rats, dogs, humans and monkeys
Experimental: as §4

PI3Kα = molecular target: T4, PI3Kα (Mus musculus, UniProt P42337); assay: PI3K isoform cell-based assay: PI3K α-mediated phosphorylation of AKT in 3T3 fibroblasts; details: pAKT by PDGF or lysophosphatidic acid in 3T3 fibroblasts
T4 construct: endogenous in cells; host or cells: 3T3 fibroblasts (pAKT)

plasma proteins [22] = assay: In vitro protein binding, dog plasma; type: in vitro ADME
Experimental: as §2

PI3Kδ [23] = molecular target: T2, PI3Kδ; assay: PI3K isoform cell-based assay: anti-IgM induced human B-cell proliferation; design: endogenous in cells; host or cells: human B cells (anti-IgM proliferation); human whole blood (anti-FcεR1 induced CD63)
[24] = Pharmacokinetics, oral bioavailability in mice; type: in vivo; details: mouse, plasma
Experimental: as §4

[25] = Tissue distribution upon single oral administration; type: in vivo; details: single oral administration 10 mg/kg bodyweight; male wistar rats
Experimental: Tissue distribution upon single oral administration (10 mg/kg bodyweight) of tenalisib was studied in male wistar rats. The rank order of Cmax and AUC in Wistar rats was liver>kidney>heart>plasma>thymus>spleen>serum>lung>blood>brain.

PI3Kγ [26] = molecular target: T5, PI3Kγ (Mus musculus, UniProt Q9JHG7); assay: PI3K isoform cell-based assay: c5a induced pAKT in RAW macrophages
T5 construct: endogenous in cells; host or cells: RAW macrophages (c5a induced pAKT)
T5 sequence (Q9JHG7 whole entry, canonical isoform): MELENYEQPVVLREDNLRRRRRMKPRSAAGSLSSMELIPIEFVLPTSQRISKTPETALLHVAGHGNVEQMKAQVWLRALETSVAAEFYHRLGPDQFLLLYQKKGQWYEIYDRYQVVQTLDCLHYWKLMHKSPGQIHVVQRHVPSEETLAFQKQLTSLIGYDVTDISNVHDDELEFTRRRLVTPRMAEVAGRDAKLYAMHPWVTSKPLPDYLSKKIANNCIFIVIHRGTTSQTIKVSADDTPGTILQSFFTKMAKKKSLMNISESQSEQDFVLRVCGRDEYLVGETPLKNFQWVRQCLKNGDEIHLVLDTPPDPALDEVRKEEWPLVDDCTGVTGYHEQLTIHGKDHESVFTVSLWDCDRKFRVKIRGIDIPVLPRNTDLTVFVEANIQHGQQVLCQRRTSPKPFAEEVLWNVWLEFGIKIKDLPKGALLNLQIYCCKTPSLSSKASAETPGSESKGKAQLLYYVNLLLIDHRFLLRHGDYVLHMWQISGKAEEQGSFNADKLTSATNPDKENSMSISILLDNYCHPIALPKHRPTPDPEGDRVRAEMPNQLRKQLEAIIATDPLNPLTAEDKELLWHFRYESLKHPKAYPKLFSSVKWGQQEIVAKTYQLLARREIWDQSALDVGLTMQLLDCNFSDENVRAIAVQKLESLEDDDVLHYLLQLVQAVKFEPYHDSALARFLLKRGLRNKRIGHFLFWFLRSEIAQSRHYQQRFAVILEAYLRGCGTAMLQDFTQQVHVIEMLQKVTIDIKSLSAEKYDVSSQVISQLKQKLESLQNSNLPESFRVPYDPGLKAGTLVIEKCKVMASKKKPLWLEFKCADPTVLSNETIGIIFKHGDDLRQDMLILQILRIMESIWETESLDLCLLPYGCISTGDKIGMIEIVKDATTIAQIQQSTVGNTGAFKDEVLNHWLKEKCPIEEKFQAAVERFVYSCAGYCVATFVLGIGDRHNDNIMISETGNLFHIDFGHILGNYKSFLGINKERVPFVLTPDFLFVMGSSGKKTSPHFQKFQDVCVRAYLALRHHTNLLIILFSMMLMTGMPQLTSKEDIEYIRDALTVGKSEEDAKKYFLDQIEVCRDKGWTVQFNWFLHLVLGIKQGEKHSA

[27] = Metabolic stability in liver microsomes, rat; type: in vitro ADME
From the text: as §3

[28] = In vitro plasma stability, human plasma; type: in vitro ADME; details: LC-MS/MS
Experimental: as §1

[29] = Metabolic stability in liver microsomes, dog; type: in vitro ADME
From the text: as §3

SMILES: CC[C@H](Nc1ncnc2[nH]cnc12)c1oc2ccccc2c(=O)c1-c1cccc(F)c1 [Compound A, (S)-2-(1-(9H-purin-6-ylamino)propyl)-3-(3-fluorophenyl)-4H-chromen-4-one]
- plasma stability [1]: stable
- IC50 (PI3Kβ [2]): 4.02 µM
- Binding to plasma proteins (plasma proteins [3]): > 96%
- EC50 (PI3Kβ [4]): 2.07 µM
- % Metabolic Stability [5]: 26.0%
- IC50 (PI3Kδ [6]; HTRF, 100 μM ATP): 0.0245 µM
- selectivity over the α and β isoforms (enzyme assay) (PI3Kδ [6]; PI3K δ/γ versus PI3K α and β, listed as compound of formula (A)): several fold selectivity; also recorded: selective
- % Metabolic Stability [7]: 29.6%
- EC50 (PI3Kδ [8]): 0.039 µM
- IC50 (PI3Kγ [9]): 0.0332 µM
- Binding to plasma proteins (plasma proteins [10]): > 96%
- plasma stability [11]: stable
- Clinical Benefit Rate, % (CBR = PR + CR + SD ≥24 weeks) ([12]; 800 mg BID (N = 20)): (55) %
- Clinical Benefit Rate, n (CBR = PR + CR + SD ≥24 weeks) ([12]; 800 mg BID (N = 20)): 11
- Disease Control rate (DCR), % ([12]; 800 mg BID (N = 20)): (65) %
- Duration of Clinical Benefit, median ([12]; 800 mg BID (N = 20)): 9.36
- Duration of Response (DOR) in ORR patients, median ([12]; 800 mg BID (N = 20)): 7.53
- Duration of Treatment (DOT), median ([12]; 800 mg BID (N = 20)): 5.55
- Objective Response rate (ORR), % ([12]; 800 mg BID (N = 20)): (10) %
- Partial Response, % ([12]; 800 mg BID (N = 20)): (10) %
- Progressive disease, % ([12]; 800 mg BID (N = 20)): (25) %
- Stable disease, % ([12]; 800 mg BID (N = 20)): (55) %
- Clinical Benefit Rate, % (CBR = PR + CR + SD ≥24 weeks) ([12]; 1200 mg BID (N = 20)): (60) %
- Clinical Benefit Rate, n (CBR = PR + CR + SD ≥24 weeks) ([12]; 1200 mg BID (N = 20)): 12
- Disease Control rate (DCR), % ([12]; 1200 mg BID (N = 20)): (70) %
- Duration of Clinical Benefit, median ([12]; 1200 mg BID (N = 20)): 7.46
- Duration of Response (DOR) in ORR patients, median ([12]; 1200 mg BID (N = 20)): 9.36
- Duration of Treatment (DOT), median ([12]; 1200 mg BID (N = 20)): 5.63
- Objective Response rate (ORR), % ([12]; 1200 mg BID (N = 20)): (15) %
- Partial Response, % ([12]; 1200 mg BID (N = 20)): (15) %
- Progressive disease, % ([12]; 1200 mg BID (N = 20)): (20) %
- Stable disease, % ([12]; 1200 mg BID (N = 20)): (55) %
- Clinical Benefit Rate, % (CBR = PR + CR + SD ≥24 weeks) ([12]; All (N = 40)): (57.5) %
- Clinical Benefit Rate, n (CBR = PR + CR + SD ≥24 weeks) ([12]; All (N = 40)): 23
- Disease Control rate (DCR), % ([12]; All (N = 40)): (67.5) %
- Duration of Clinical Benefit, median ([12]; All (N = 40)): 7.46
- Duration of Response (DOR) in ORR patients, median ([12]; All (N = 40)): 9.36
- Duration of Treatment (DOT), median ([12]; All (N = 40)): 5.60
- Objective Response rate (ORR), % ([12]; All (N = 40)): (12.5) %
- Partial Response, % ([12]; All (N = 40)): (12.5) %
- Progressive disease, % ([12]; All (N = 40)): (22.5) %
- Stable disease, % ([12]; All (N = 40)): (55) %
- EC50 (PI3Kγ [13]): 0.0378 µM
- plasma stability [14]: stable
- bioavailability [15]: > 72.4%
- bioavailability [16]: > 100%
- TGI (Tumour Growth Inhibition) compared to control [17]: 29%
- % Metabolic Stability [18]: 73.9%
- metabolic stability rank order [19]: rat>human>dog>monkey>mouse
- Binding to plasma proteins (plasma proteins [20]): > 96%
- Absorption [21]: rapid
- clearance [21]: moderate
- EC50 (PI3Kα): > 10 µM
- Binding to plasma proteins (plasma proteins [22]): > 96%
- selectivity over the α and β isoforms (cell-based assay) (PI3Kδ [23]; PI3K δ/γ versus PI3K α and β): selective
- EC50 (PI3Kδ [23]; anti-IgM induced human B-cell proliferation): 0.0381 µM
- bioavailability [24]: 21.6%
- rank order of Cmax and AUC in tissues [25]: liver>kidney>heart>plasma>thymus>spleen>serum>lung>blood>brain
- EC50 (PI3Kγ [26]): 0.0223 µM
- % Metabolic Stability [27]: 79.3%
- plasma stability [28]: stable
- % Metabolic Stability [29]: 52.2%
